The test concerns the target T1, human 5HT1A-serotonergic receptor (Homo sapiens, UniProt P08908).
T1 construct: expressed in transfected cells; host or cells: HeLa (human cell line), stably transfected; cell membranes used
T1 sequence (P08908 1-422): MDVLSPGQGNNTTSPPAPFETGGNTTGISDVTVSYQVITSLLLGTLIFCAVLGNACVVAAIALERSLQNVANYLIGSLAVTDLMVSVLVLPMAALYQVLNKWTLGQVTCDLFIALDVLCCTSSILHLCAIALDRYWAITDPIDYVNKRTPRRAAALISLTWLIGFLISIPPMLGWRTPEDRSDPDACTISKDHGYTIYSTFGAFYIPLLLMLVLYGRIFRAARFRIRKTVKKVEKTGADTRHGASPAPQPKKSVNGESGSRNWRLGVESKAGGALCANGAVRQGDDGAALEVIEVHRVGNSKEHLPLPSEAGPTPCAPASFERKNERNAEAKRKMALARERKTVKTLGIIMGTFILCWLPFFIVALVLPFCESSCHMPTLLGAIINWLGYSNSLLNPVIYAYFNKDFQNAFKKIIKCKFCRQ
The test is described as follows: Radioligand binding to recombinant 5-HT1A receptors. The settings on record: [3H]8-OH-DPAT 1 nM, membranes of HeLa cells with human 5-HT1A receptor; Ki from IC50 by Cheng & Prusoff; read-out: Binding affinity for 5HT1A receptors, Ki. Here is the method:
Genomic clone G-21 coding for the human 5HT1A-serotonergic receptor was stably transfected in a human cell line (HeLa). HeLa cells were grown as monolayers in Dulbecco's modified Eagle medium (DMEM), containing 10% foetal bovine serum, gentamicin ([…]) and 5% carbon dioxide, at 37° C. The cells were detached from the growth flask at 95% confluence by a cell scraper and were lysed in cold 5 mM Tris and 5 mM EDTA buffer (pH 7.4). The homogenates were centrifuged at 40000×g×20 minutes and the pellets were resuspended in a small volume of cold 5 mM Tris and 5 mM EDTA buffer (pH 7.4) and immediately frozen and stored at −70° C. until use. On the day of experiment, the cell membranes were resuspended in incubation buffer: 50 mM Tris HCl (pH 7.4), 2.5 mM MgCl2, […] (Fargin et al., Nature 335, 358-360, 1988). The membranes were incubated in a final volume of 1 ml for 30 minutes at 30° C. with 1 nM [^3H]8-OH-DPAT, in the absence or presence of the test compounds. Non-specific binding was determined in the presence of 10 μM 5-HT. Incubation was stopped by addition of cold Tris-HC 1 buffer and rapid filtration through a 0.2%-polyethyleneimine-pretreated Whatman-GF/B or Schleicher-&-Schuell-GF52 filter.
The affinity of the tested compounds was evaluated as inhibition of specific binding of the radioligand to 5-HT1A receptors (IC50) by using the non-linear curve-fitting program Allfit (De Lean et al., Am. J. Physiol. 235, E97-E102 (1978). The IC50 value was converted to an affinity constant (Ki) by the equation of Cheng & Prusoff (Cheng Y. C., Prusoff W. H., Biochem. Pharmacol. 22, 3099-3108 (1973)).
For orientation: Ki means a dissociation constant, usually derived from enzyme kinetics or from competition with a known ligand. In the case of `CCn1ccc2c(N3CCN(CC4CCc5ccccc5N4C(=O)C4CCCCC4)CC3)cccc21` (stereo not shown) [Example 62A, 1-(1-Cyclohexanecarbonyl-1,2,3,4-tetrahydroquinoline-2-ylmethyl)-4-(1-ethyl-4-indolyl)piperazine], the Ki is 0.0434 µM. In the case of `COc1cc(F)ccc1N1CCN(CC2CCc3cc(-c4ccc(C(C)=O)s4)ccc3N2C(=O)C2CCCCC2)CC1` (stereo not shown) [Example 63, 1-[6-(5-Acetyl-2-thienyl)-1-cyclohexanecarbonyl-1,2,3,4-tetrahydroquinoline-2-ylmethyl)-4-(4-fluoro-2-methoxyphenyl)piperazine] it was 0.0429 µM; in that of `COc1cc(F)ccc1N1CCN(CC2CCc3cc(-c4c(C)noc4C)ccc3N2C(=O)C2CCCCC2)CC1` (stereo not shown) [Example 64, 1-[1-Cyclohexanecarbonyl-6-(3,5-dimethylisoxazol-4-yl)-1,2,3,4-tetrahydroquinoline-2-ylmethyl]-4-(4-fluoro-2-methoxyphenyl)piperazine], 0.0239 µM; in that of `COc1cc(F)ccc1N1CCN(CC2CCc3cccc(C)c3N2C(=O)C2CCCCC2)CC1` (stereo not shown) [Example 67, 1-(1-Cyclohexanecarbonyl-8-methyl-1,2,3,4-tetrahydroquinoline-2-ylmethyl)-4-(4-fluoro-2-methoxyphenyl)piperazine], 0.0294 µM. In the case of `CN(C)c1ccc(C(=O)N2c3ccccc3CCC2CN2CCN(c3cccc4[nH]ccc34)CC2)cc1` (stereo not shown) [Example 68A1, 1-[1-(4-Dimethylaminobenzoyl)-1,2,3,4-tetrahydroquinoline-2-ylmethyl]-4-(4-indolyl)piperazine] it was 0.0239 µM; in that of `O=C(Cc1ccccc1)N1c2ccccc2CCC1CN1CCN(c2cccc3[nH]ccc23)CC1` (stereo not shown) [Example 68A2, 1-(4-Indolyl)-4-[1-(2-phenylacetyl)-1,2,3,4-tetrahydroquinoline-2-ylmethyl]piperazine], 0.0139 µM; in that of `N#Cc1ccc(C(=O)N2c3ccccc3CCC2CN2CCN(c3cccc4[nH]ccc34)CC2)cc1` (stereo not shown) [Example 68A3, 1-[1-(4-Cyanobenzoyl)-1,2,3,4-tetrahydroquinoline-2-ylmethyl]-4-(4-indolyl)piperazine], 0.0071 µM. In the case of `O=C(c1ccccc1Cl)N1c2ccccc2CCC1CN1CCN(c2cccc3[nH]ccc23)CC1` (stereo not shown) [Example 68A4, 1-[1-(2-Chlorobenzoyl)-1,2,3,4-tetrahydroquinoline-2-ylmethyl]-4-(4-indolyl)piperazine] it was 0.0047 µM; in that of `O=C(c1ccc(Cl)cc1)N1c2ccccc2CCC1CN1CCN(c2cccc3[nH]ccc23)CC1` (stereo not shown) [Example 68A5, 1-[1-(4-Chlorobenzoyl)-1,2,3,4-tetrahydroquinoline-2-ylmethyl]-4-(4-indolyl)piperazine], 0.004 µM; in that of `O=C(c1cccc(Cl)c1)N1c2ccccc2CCC1CN1CCN(c2cccc3[nH]ccc23)CC1` (stereo not shown) [Example 68A6, 1-[1-(3-Chlorobenzoyl)-1,2,3,4-tetrahydroquinoline-2-ylmethyl]-4-(4-indolyl)piperazine], 0.0142 µM. Regarding `CC(C)C(=O)N1c2ccccc2CCC1CN1CCN(c2cccc3[nH]ccc23)CC1` (stereo not shown) [Example 68A9, 1-(4-Indolyl)-4-[1-(2-methylpropionyl)-1,2,3,4-tetrahydroquinoline-2-ylmethyl]piperazine], the inhibition constant (Ki) was determined as 0.0246 µM. The figure for `CC(C)CC(=O)N1c2ccccc2CCC1CN1CCN(c2cccc3[nH]ccc23)CC1` (stereo not shown) [Example 68A12, 1-(4-Indolyl)-4-[1-(3-methylbutanoyl)-1,2,3,4-tetrahydroquinoline-2-ylmethyl]piperazine] is 0.0026 µM; for `O=C(c1cccs1)N1c2ccccc2CCC1CN1CCN(c2cccc3[nH]ccc23)CC1` (stereo not shown) [Example 68A19, 1-(4-Indolyl)-4-[1-(2-thienylcarbonyl)-1,2,3,4-tetrahydroquinoline-2-ylmethyl]piperazine] it is 0.0041 µM; for `O=C(c1ccsc1)N1c2ccccc2CCC1CN1CCN(c2cccc3[nH]ccc23)CC1` (stereo not shown) [Example 68A20, 1-(4-Indolyl)-4-[1-(3-thienylcarbonyl)-1,2,3,4-tetrahydroquinoline-2-ylmethyl]piperazine] it is 0.0307 µM.

With `O=C(c1ccc(C(F)(F)F)cc1)N1c2ccccc2CCC1CN1CCN(c2cccc3[nH]ccc23)CC1` (stereo not shown) [Example 68A23, 1-(4-Indolyl)-4-[1-(4-trifluoromethylbenzoyl)-1,2,3,4-tetrahydroquinoline-2-ylmethyl]piperazine], the Ki is 0.0428 µM.

As to `O=C(CCc1ccccc1)N1c2ccccc2CCC1CN1CCN(c2cccc3[nH]ccc23)CC1` (stereo not shown) [Example 68A24, 1-(4-Indolyl)-4-[1-(3-phenylpropionyl)-1,2,3,4-tetrahydroquinoline-2-ylmethyl]piperazine], the Ki was 0.0329 µM. In the case of `O=C(c1c(F)cccc1F)N1c2ccccc2CCC1CN1CCN(c2cccc3[nH]ccc23)CC1` (stereo not shown) [Example 68A28, 1-[1-(2,6-Difluorobenzoyl)-1,2,3,4-tetrahydroquinoline-2-ylmethyl]-4-(4-indolyl)piperazine] it was 0.0344 µM; in that of `O=C(Cc1ccc(Cl)cc1)N1c2ccccc2CCC1CN1CCN(c2cccc3[nH]ccc23)CC1` (stereo not shown) [Example 68A30, 1-[1-[2-(4-Chlorophenyl)acetyl]-1,2,3,4-tetrahydroquinoline-2-ylmethyl]-4-(4-indolyl)piperazine], 0.0238 µM; in that of `O=C(Cc1ccc(C(F)(F)F)cc1)N1c2ccccc2CCC1CN1CCN(c2cccc3[nH]ccc23)CC1` (stereo not shown) [Example 68A31], 0.0418 µM. In the case of `O=C(c1ccccn1)N1c2ccccc2CCC1CN1CCN(c2cccc3[nH]ccc23)CC1` (stereo not shown) [Example 68A32, 1-(4-Indolyl)-4-[1-(2-pyridylcarbonyl)-1,2,3,4-tetrahydroquinoline-2-ylmethyl]piperazine] it was 0.0194 µM.

For `O=C(c1cccnc1)N1c2ccccc2CCC1CN1CCN(c2cccc3[nH]ccc23)CC1` (stereo not shown) [Example 68A33, 1-(4-Indolyl)-4-[1-(3-pyridylcarbonyl)-1,2,3,4-tetrahydroquinoline-2-ylmethyl]piperazine], the Ki came out at 0.0133 µM. The figure for `O=C(c1ccncc1)N1c2ccccc2CCC1CN1CCN(c2cccc3[nH]ccc23)CC1` (stereo not shown) [Example 68A34, 1-(4-Indolyl)-4-[1-(4-pyridylcarbonyl)-1,2,3,4-tetrahydroquinoline-2-ylmethyl]piperazine] is 0.0249 µM. The figure for `CC(C)(C)C(=O)N1c2ccccc2CCC1CN1CCN(c2cccc3[nH]ccc23)CC1` (stereo not shown) [Example 68A36, 1-[1-(2,2-Dimethylpropionyl)-1,2,3,4-tetrahydroquinoline-2-ylmethyl]-4-(4-indolyl)piperazine] is 0.0107 µM; for `CC(=O)N1CCC(C(=O)N2c3ccccc3CCC2CN2CCN(c3cccc4[nH]ccc34)CC2)CC1` (stereo not shown) [Example 68A38, 1-[1-(1-Acetylpiperidine-4-carbonyl)-1,2,3,4-tetrahydroquinoline-2-ylmethyl]-4-(4-indolyl)piperazine] it is 0.0244 µM. In the case of `O=C(Cc1cccs1)N1c2ccccc2CCC1CN1CCN(c2cccc3[nH]ccc23)CC1` (stereo not shown) [Example 68A39, 1-(4-Indolyl)-4-[1-[2-(2-thienylacetyl)]-1,2,3,4-tetrahydroquinoline-2-ylmethyl]piperazine] it was 0.0068 µM; in that of `O=C(Cc1ccsc1)N1c2ccccc2CCC1CN1CCN(c2cccc3[nH]ccc23)CC1` (stereo not shown) [Example 68A40, 1-(4-Indolyl)-4-[1-[2-(3-thienylacetyl)]-1,2,3,4-tetrahydroquinoline-2-ylmethyl]piperazine], 0.0075 µM; in that of `O=C(CCc1cccnc1)N1c2ccccc2CCC1CN1CCN(c2cccc3[nH]ccc23)CC1` (stereo not shown) [Example 68A41, 1-(4-Indolyl)-4-[1-[3-(3-pyridylpropionyl)]-1,2,3,4-tetrahydroquinoline-2-ylmethyl]piperazine], 0.0491 µM. For `O=C(COc1ccccc1)N1c2ccccc2CCC1CN1CCN(c2cccc3[nH]ccc23)CC1` (stereo not shown) [Example 68A42, 1-(4-Indolyl)-4-[1-(2-phenoxyacetyl)-1,2,3,4-tetrahydroquinoline-2-ylmethyl]piperazine], the Ki is 0.0198 µM.

Source of the values: patent US20030162777A1, “Novel N-acylated heterocycles” (Recordati S.A., priority 2001, published 2003).
